What all share (assay type): biochemical
In one experiment the target is T1, recombinant PRL-2 (Homo sapiens, UniProt Q12974).
T1 construct: 6xHis (N, cleaved yes); made in house; host or cells: E. coli One Shot BL21 Star
T1 sequence (Q12974 1-167): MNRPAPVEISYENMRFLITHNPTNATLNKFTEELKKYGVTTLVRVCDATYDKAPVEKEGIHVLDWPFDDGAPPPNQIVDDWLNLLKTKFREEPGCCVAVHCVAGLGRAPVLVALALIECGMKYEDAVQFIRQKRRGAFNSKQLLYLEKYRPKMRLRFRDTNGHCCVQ
Description: In vitro phosphatase assay (DiFMUP hydrolysis), PRL-2.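 Note: PRL-2 activity read as DiFMUP hydrolysis after 20 min at room temperature with drug, enzyme first pre-reduced at 4 °C for 20 min.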

The target in a further experiment is T2, recombinant PRL-3 (Homo sapiens, UniProt O75365).
T2 construct: 6xHis (N, cleaved yes); made in house; host or cells: E. coli One Shot BL21 Star
T2 sequence (O75365 whole entry): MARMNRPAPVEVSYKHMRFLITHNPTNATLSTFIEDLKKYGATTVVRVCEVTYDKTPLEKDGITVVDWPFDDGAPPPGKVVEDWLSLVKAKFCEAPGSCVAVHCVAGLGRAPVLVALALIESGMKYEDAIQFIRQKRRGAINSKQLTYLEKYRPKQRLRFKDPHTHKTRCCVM
Description: In vitro phosphatase assay (DiFMUP hydrolysis), PRL-3. Note: test concentration or dose not given here.

A further experiment addresses T3, recombinant PRL-1 (Homo sapiens, UniProt Q93096).
T3 construct: 6xHis (N, cleaved yes); made in house; host or cells: E. coli One Shot BL21 Star
T3 sequence (Q93096 1-173): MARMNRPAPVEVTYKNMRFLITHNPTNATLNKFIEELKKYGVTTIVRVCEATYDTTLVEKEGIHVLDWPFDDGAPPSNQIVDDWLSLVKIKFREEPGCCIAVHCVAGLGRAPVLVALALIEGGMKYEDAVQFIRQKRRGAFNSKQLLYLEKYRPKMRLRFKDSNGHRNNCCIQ
Description: In vitro phosphatase assay (DiFMUP hydrolysis), PRL-1. Note: test concentration or dose not given here.

The mark [1] stands for this setting: FDA-approved drug screen, compared to DMSO.
Where [2] appears, read: FDA-approved drug screen, activity compared to DMSO.

The values that follow come from paper PMC8119466, “A screen of FDA-approved drugs identifies inhibitors of protein tyrosine phosphatase 4A3 (PTP4A3 or PRL-3)” (Scientific Reports, 2021).

Counter-ions that a name gives are not always drawn. Like-named read-outs stand apart in the source and are kept apart here.

On to `O=C1NCC2(CCN(CCc3ccccc3)CC2)O1` [Fenspiride HCl], for which the “% Phosphatase Activity (compared to DMSO) PRL-2” value on recombinant PRL-2 (setting [1]) is given as 101%. Moreover, the “% Phosphatase Activity (compared to DMSO) PRL-3” value on recombinant PRL-3 (setting [1]) stood at 104%. The “% Phosphatase Activity (compared to DMSO) PRL-1” value on recombinant PRL-1 (setting [1]) amounted to 90%.
The matching figures for `O=C(Nc1c(Cl)cncc1Cl)c1ccc(OC(F)F)c(OCC2CC2)c1` [Roflumilast]: 101%, 87% and 107%.
For the compound `c1ccc(C2CN3CCSC3=N2)cc1` (single isomer, unassigned; (-)) [(-)-Tetramisole], the “% Phosphatase Activity (compared to DMSO) PRL-2” value on recombinant PRL-2 is 92%. Further, the “% Phosphatase Activity (compared to DMSO) PRL-3” value at recombinant PRL-3 is 99%. Besides, the “% Phosphatase Activity (compared to DMSO) PRL-1” value on recombinant PRL-1 is on record as 93%.
Take `CCn1cc(C(=O)O)c(=O)c2cc(F)c(N3CCNC(C)C3)c(F)c21` (stereo not drawn) [Lomefloxacin HCl]: the “% Phosphatase Activity (compared to DMSO) PRL-2” value on recombinant PRL-2 (setting [1]) was determined as 121%. Also, on recombinant PRL-3 (setting [1]), the “% Phosphatase Activity (compared to DMSO) PRL-3” value is reported as 110%. In addition, on recombinant PRL-1 (setting [1]), the “% Phosphatase Activity (compared to DMSO) PRL-1” value came to 123%.
`CCCN(CCc1cccs1)[C@H]1CCc2c(O)cccc2C1` [Rotigotine]: on recombinant PRL-2 (setting [1]), the “% Phosphatase Activity (compared to DMSO) PRL-2” value was determined as 99%. The “% Phosphatase Activity (compared to DMSO) PRL-3” value on recombinant PRL-3 (setting [1]) is on record as 82%. Besides, the “% Phosphatase Activity (compared to DMSO) PRL-1” value on recombinant PRL-1 (setting [1]) came to 100%.
Turning to `NCC1(CC(=O)O)CCCCC1` [Gabapentin], the “% Phosphatase Activity (compared to DMSO) PRL-2” value at recombinant PRL-2 (setting [1]) is reported as 92%. At recombinant PRL-3 (setting [1]), the “% Phosphatase Activity (compared to DMSO) PRL-3” value is recorded as 87%. Also, the “% Phosphatase Activity (compared to DMSO) PRL-1” value on recombinant PRL-1 (setting [1]) was 105%.
The matching figures for `CC(=O)NC[C@H]1CN(c2ccc(N3CCOCC3)c(F)c2)C(=O)O1` [Linezolid]: 97%, 89% and 98%.
The matching figures for `O=C(O)CSc1nnc(Br)n1-c1ccc(C2CC2)c2ccccc12` [Lesinurad]: 102%, 85% and 90%.
Take `CC(=O)Oc1cc(C(F)(F)F)ccc1C(=O)O` [Triflusal]: on recombinant PRL-2 (setting [2]), the “% Phosphatase Activity (compared to DMSO) PRL-2” value worked out at 105%. Moreover, the “% Phosphatase Activity (compared to DMSO) PRL-3” value at recombinant PRL-3 (setting [2]) came to 78%. Besides, the “% Phosphatase Activity (compared to DMSO) PRL-1” value on recombinant PRL-1 (setting [2]) was 108%.
With `O=C1C(O)=C([C@H]2CC[C@H](c3ccc(Cl)cc3)CC2)C(=O)c2ccccc21` [Atovaquone], on recombinant PRL-2 (setting [1]), the “% Phosphatase Activity (compared to DMSO) PRL-2” value is 88%. Moreover, the “% Phosphatase Activity (compared to DMSO) PRL-3” value on recombinant PRL-3 (setting [1]) turned out to be 90%. Besides, at recombinant PRL-1 (setting [1]), the “% Phosphatase Activity (compared to DMSO) PRL-1” value came out at 96%.
For `C[C@]12CC[C@@H]3c4ccc(O)cc4CC[C@H]3[C@@H]1CC[C@@H]2OC(=O)CCC1CCCC1` [Estradiol Cypionate], in that order: 109%, 74% and 96%.
`COc1ccc(CN2CCN(C(c3ccc(F)cc3)c3ccc(F)cc3)CC2)c(OC)c1OC.Cl.Cl` [Lomerizine HCl]: the “% Phosphatase Activity (compared to DMSO) PRL-2” value on recombinant PRL-2 (setting [1]) stood at 118%. Moreover, the “% Phosphatase Activity (compared to DMSO) PRL-3” value on recombinant PRL-3 (setting [1]) is recorded as 84%. The “% Phosphatase Activity (compared to DMSO) PRL-1” value at recombinant PRL-1 (setting [1]) worked out at 97%.
With `CC(C)(C)NCC(O)c1cc(O)cc(O)c1` (stereo not drawn) [Terbutaline Sulfate], the “% Phosphatase Activity (compared to DMSO) PRL-2” value at recombinant PRL-2 (setting [2]) is 97%. Besides, the “% Phosphatase Activity (compared to DMSO) PRL-3” value at recombinant PRL-3 (setting [2]) came out at 101%. The “% Phosphatase Activity (compared to DMSO) PRL-1” value at recombinant PRL-1 (setting [2]) is on record as 95%.
For `O=C(CCCN1CC=C(n2c(=O)[nH]c3ccccc32)CC1)c1ccc(F)cc1` [Droperidol], on recombinant PRL-2 (setting [1]), the “% Phosphatase Activity (compared to DMSO) PRL-2” value turned out to be 106%. Further, the “% Phosphatase Activity (compared to DMSO) PRL-3” value on recombinant PRL-3 (setting [1]) was 71%. In addition, at recombinant PRL-1 (setting [1]), the “% Phosphatase Activity (compared to DMSO) PRL-1” value is 85%.
On to `N.N.O=C([O-])C1(C(=O)[O-])CCC1.[Pt+2]` [Carboplatin], for which the “% Phosphatase Activity (compared to DMSO) PRL-2” value on recombinant PRL-2 (setting [1]) amounted to 79%. Moreover, the “% Phosphatase Activity (compared to DMSO) PRL-3” value on recombinant PRL-3 (setting [1]) is reported as 85%. Moreover, on recombinant PRL-1 (setting [1]), the “% Phosphatase Activity (compared to DMSO) PRL-1” value was 90%.
As to `N#C[C@@H]1CCCN1C(=O)CNC12CC3CC(CC(O)(C3)C1)C2` [Vildagliptin (LAF-237)], the “% Phosphatase Activity (compared to DMSO) PRL-2” value on recombinant PRL-2 (setting [2]) turned out to be 136%. Also, at recombinant PRL-3 (setting [2]), the “% Phosphatase Activity (compared to DMSO) PRL-3” value stood at 94%. Moreover, the “% Phosphatase Activity (compared to DMSO) PRL-1” value at recombinant PRL-1 (setting [2]) amounted to 99%.
Turning to `COc1c(C)c2c(c(O)c1C/C=C(\C)CCC(=O)OCCN1CCOCC1)C(=O)OC2` [Mycophenolate Mofetil], on recombinant PRL-2 (setting [1]), the “% Phosphatase Activity (compared to DMSO) PRL-2” value came to 125%. Further, the “% Phosphatase Activity (compared to DMSO) PRL-3” value at recombinant PRL-3 (setting [1]) turned out to be 102%. Also, the “% Phosphatase Activity (compared to DMSO) PRL-1” value at recombinant PRL-1 (setting [1]) is 131%.
